These are literature values, as cited in patent US12138350B2, “Method of producing a extruded composition” (Cubic Pharmaceuticals Ltd., priority 2015, dated 2024).

For this data set the following is noted: Ramukutty and Ramachandran 2014.

Regarding `CC(C)Cc1ccc(C(C)C(=O)O)cc1` (racemic) [Ibuprofen, (RS)-2-(4-(2-methylpropyl)phenyl)propanoic acid], the “Temperature up to which stable” value is “about 152 °C”.
